In patent US6794402B2, “Bicyclic cyclohexylamines and their use as NMDA receptor antagonists” (Warner-Lambert Company, priority 2000, dated 2004):
pIC50: −log10 of the molar value.

What was measured:
[1] = molecular target: T1, [3H]ifenprodil binding site, rat forebrain membranes (Rattus norvegicus, UniProt P35439+Q00960); assay: [3H]Ifenprodil binding assay; settings: 4 nM [3H]-ifenprodil, 2 hours at room temperature
T1 construct: membrane fraction was prepared from frozen adult rat forebrains; tissue Zivic-Miller Laboratories, Inc; host or cells: adult rat forebrain, washed buffy coat membrane fraction
T1 sequence (Q00960 27-1482, other chains not shown): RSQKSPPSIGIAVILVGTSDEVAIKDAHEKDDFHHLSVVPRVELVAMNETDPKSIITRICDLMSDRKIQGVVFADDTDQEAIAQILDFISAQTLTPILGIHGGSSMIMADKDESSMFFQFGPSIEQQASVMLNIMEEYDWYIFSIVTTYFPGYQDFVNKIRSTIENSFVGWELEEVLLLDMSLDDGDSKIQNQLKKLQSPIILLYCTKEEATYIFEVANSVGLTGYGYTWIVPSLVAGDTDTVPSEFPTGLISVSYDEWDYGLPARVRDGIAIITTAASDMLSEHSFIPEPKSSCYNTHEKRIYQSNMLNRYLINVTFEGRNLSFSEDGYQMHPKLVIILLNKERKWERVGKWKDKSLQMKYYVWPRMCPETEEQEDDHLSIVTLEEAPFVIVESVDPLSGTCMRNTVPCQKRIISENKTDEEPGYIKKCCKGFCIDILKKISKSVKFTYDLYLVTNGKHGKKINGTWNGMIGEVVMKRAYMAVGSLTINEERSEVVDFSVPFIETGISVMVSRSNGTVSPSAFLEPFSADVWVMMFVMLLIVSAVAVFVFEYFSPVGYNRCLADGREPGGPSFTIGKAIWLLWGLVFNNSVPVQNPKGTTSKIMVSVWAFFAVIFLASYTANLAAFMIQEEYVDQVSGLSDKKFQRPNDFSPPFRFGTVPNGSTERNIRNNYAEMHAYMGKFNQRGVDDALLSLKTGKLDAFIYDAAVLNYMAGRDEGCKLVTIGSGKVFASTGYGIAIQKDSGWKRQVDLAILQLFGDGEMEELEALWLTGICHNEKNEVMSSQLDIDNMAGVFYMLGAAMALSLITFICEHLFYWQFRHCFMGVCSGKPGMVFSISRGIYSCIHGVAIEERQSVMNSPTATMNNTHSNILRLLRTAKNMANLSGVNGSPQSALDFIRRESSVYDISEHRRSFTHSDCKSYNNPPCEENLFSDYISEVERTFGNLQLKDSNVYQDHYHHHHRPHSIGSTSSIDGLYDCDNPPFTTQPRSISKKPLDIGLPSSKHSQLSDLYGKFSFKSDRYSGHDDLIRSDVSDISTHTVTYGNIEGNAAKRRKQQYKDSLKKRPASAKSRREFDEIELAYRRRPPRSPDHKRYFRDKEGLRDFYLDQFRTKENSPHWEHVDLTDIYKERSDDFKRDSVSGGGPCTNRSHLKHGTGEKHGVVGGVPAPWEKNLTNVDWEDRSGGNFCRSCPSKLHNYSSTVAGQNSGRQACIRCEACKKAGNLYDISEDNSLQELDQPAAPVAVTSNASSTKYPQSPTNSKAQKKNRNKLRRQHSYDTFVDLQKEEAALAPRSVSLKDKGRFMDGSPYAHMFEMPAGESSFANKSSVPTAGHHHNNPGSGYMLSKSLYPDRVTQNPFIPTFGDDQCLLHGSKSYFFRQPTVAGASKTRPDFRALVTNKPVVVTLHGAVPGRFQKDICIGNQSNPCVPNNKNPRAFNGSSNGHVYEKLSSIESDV
How it was run: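 Washed rat forebrain buffy coat membranes (100-200 μg protein) were incubated with 4 nM [3H]ifenprodil in 20 mM HEPES-KOH pH 7.4 for 2 hours at room temperature, in triplicate, then filtered on PEI-soaked GF/B filters. Nonspecific binding was set with 1 mM ifenprodil. IC50 came from a one- or two-site competition fit.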

NR1A/NR2B NMDA receptor = NR1A/NR2B NMDA receptor (Rattus norvegicus, UniProt P35439+Q00960); assay: Electrophysiological assay at NMDA receptor subunits expressed in Xenopus oocytes; format: cell-based; settings: cloned rat NR1A/NR2B in Xenopus oocytes, two-electrode voltage clamp, glutamate 100 μM + glycine 1-100 μM; read-out: NR1A/NR2B Oocyte IC50
Chain of NR1A/NR2B NMDA receptor (Q00960 27-1482, other chains not shown): as above
Source text: Preparation of RNA. cDNA clones encoding the NR1A, NR2A, NR2B, and NR2C rat NMDA receptor subtypes were used (see, Moriyoshi, supra., 1991; Kutsuwada et al., supra., 1992; Monyer et al., supra, 1992; Ikeda et al., FEBS Lett., 1992;313:34-38; Ishii et al., J. Biol. Chem., 1993;268:2836-2843 for details of these clones or their mouse homologs). The clones were transformed into appropriate host bacteria and plasmid preparations were made with conventional DNA purification techniques. A sample of each clone linearized by restriction enzyme digestion […] was synthesized with T3 RNA polymerase. The cRNA was diluted to 400 ng/μL and stored in 1-μL aliquots at −80° C. until injection.
The Xenopus oocyte expression system. Mature female Xenopus laevis were anaesthetized (20-40 minutes) using 0.15% 3-aminobenzoic acid ethyl ester (MS-222), and 2 to 4 ovarian lobes were surgically removed. Oocytes at developmental stages IV-VI (Dumont J. N., J. Morphol., 1972;136:153-180) were dissected from the ovary still surrounded by enveloping ovarian tissues. Follicle-enclosed oocytes were microinjected with 1:1 mixtures of NR1A:NR2A, 2B or 2C; injecting 1 to 10 ng of RNA encoding each receptor subunit. NR1A encoding RNA was injected alone at ˜20 ng. Oocytes were stored in Barth's medium containing (in mM): NaCl, 88; KCl, 1; CaCl2, 0.41; Ca (NO3)2, 0.33; MgSO4, 0.82; NaHCO3, 2.4; HEPES 5; pH 7.4, with 0.11 mg/mL gentamicin sulphate. While oocytes were still surrounded by enveloping ovarian tissues, the Barth's medium was supplemented with 0.1% bovine serum. Oocytes were defolliculated 1 to 2 days following injections by treatment with collagenase (0.5 mg/mL Sigma Type I for 0.5-1 hr)-(Miledi and Woodward, J. Phsyiol., (Lond) 1989;416:601-621) and subsequently stored in serum-free medium.
Electrical recordings were made using a conventional two-electrode voltage clamp (Dagan TEV-200) over periods ranging between 3 to 21 days following injection (Woodward et al., Mol. Pharmacol., 1992;41:89-103). Oocytes were placed in a 0.1-mL recording chamber continuously perfused (5 mL-15 mL min^−1) with frog Ringer's solution containing (in mM): NaCl, 115; KCL, 2; BaCl2, 1.8; HEPES, 5; and pH 7.4. Drugs were applied by bath perfusion. Using oocytes expressing different subunit combinations of NMDA receptor, NMDA currents were activated by co-application of glutamate (100 μM) and glycine (1-100 μM). Inhibitory potency of the novel antagonists was assessed on responses elicited by fixed concentrations of glutamate and glycine, by measuring reductions in current induced by progressively increasing concentrations of antagonist.
Concentration-inhibition curves were fit with Equation 1.
I/Icontrol=1/(1+([antagonist]/10−^pIC50)^n) Eq. 1
In which Icontrol is the current evoked by agonists alone, pIC50=−log IC50, IC50 is the concentration of antagonist that produced half maximal inhibition, and n is the slope factor (De Lean et al., Am. J. Physiol., 1978;235:E97-102). For incomplete curves, analysis by fitting was unreliable and IC50 values were calculated by simple regression over linear portions of the curves (Origin: Microcal Software).

[2] = test system: 6-Hydroxydopamine-lesioned rats; assay: 6-OHDA lesioned rat assay; format: in vivo; settings: for 6-OHDA MED: minimum effective dose to potentiate contraversive rotation induced by L-DOPA methyl ester 10 mg/kg SC, 6-hour period; for 6-OHDA active/inactive at the given dose: statistically significant increase in contraversive rotations vs L-DOPA only
Experimental: 6-Hydroxydopamine-lesioned rats were used (see Ungerstedt U., Arbuthnott G. W., Quantitative recording of rotational behavior in rats after 6-hydroxy-dopamine lesions of the nigrostraiatal dopamine system. Brain Res., 1971;24(3):485-93). Adult male Sprague-Dawley rats were anesthetized with chloral hydrate and unilateral lesions of the nigrostriatal dopamine system were accomplished by infusion of 8 μg of 6-hydroxydopamine HBr (6-OHDA) into the right medial forebrain bundle. Rats were pretreated 30 minutes before surgery with desipramine HCl 25 mg/kg intraperitoneally (IP) to protect noradrenegic neurons, and pargyline 25 mg/kg IP to potentiate the effects of 6-OHDA. A minimum of 3 weeks after surgery, the rotational behavior induced by apomorphine HCL 50 μg/kg subcutaneously (SC) was assessed.
Rotational behavior was measured using an automatic rotometer system (Rotorat Rotational Activity System, MED Associates, Georgia, Vt.). Anti-parkinsonian activity was assessed as the ability of the compound to potentiate the contraversive rotation induced by L-DOPA methyl ester, 10 mg/kg SC, over a 6-hour period. Experiments were conducted using a crossover paradigm where each rat received either a vehicle plus L-DOPA, or the test compound plus L-DOPA, in randomized order. Rats were tested at 7-day intervals. In experiments in which the compound was tested orally, rats were food deprived for 16 hours. Statistical analysis between treatment groups were performed using a paired t-test. The results were reported in Table 1 as the minimum effective dose (MED) of compound (mg/kg) required to produce a statistically-significant increase in total contraversive rotations compared to rats receiving L-DOPA only.

Row | SMILES | pIC50 [1] | pIC50 (NR1A/NR2B NMDA receptor) | melting point [°C] | 6-OHDA MED [2] [mg/kg] | 6-OHDA active/inactive at the given dose [2]
1 | O=c1[nH]c2ccc([C@H]3CC[C@H](NCCSc4ccccc4)CC3)cc2o1 [Example 5a, 6-[trans-4-(2-Phenylsulfanylethylamino)cyclohexyl]-3H-benzoxazol-2-one] | 8.40 | 7.70 | – | – | –
2 | O=c1[nH]c2ccc([C@H]3CC[C@H](NCCCc4ccccc4)CC3)cc2o1 [Example 1, 6-[trans-4-(3-Phenylpropylamino)cyclohexyl]-3H-benzoxazol-2-one] | 8.40 | 7.52 | 166 to 170 | 30 | active
3 | O=c1[nH]c2ccc([C@H]3CC[C@H](NCC[S+]([O-])c4ccccc4)CC3)cc2o1 (stereo partly drawn) [Example 15, 6-[trans-4-(2-Benzenesulfinylethylamino)cyclohexyl]-3H-benzoxazol-2-one] | 7.04 | 6.34 | – | – | –
4 | C[C@H](CCc1ccccc1)N[C@H]1CC[C@H](c2ccc3[nH]c(=O)oc3c2)CC1 [Example 9, 6-{trans-4-[(R)-1-Methyl-3-phenylpropylamino]cyclohexyl}-3H-benzoxazol-2-one] | 7.82 | 7.22 | – | – | –
5 | COc1ccc([C@H](O)[C@H](C)N[C@H]2CC[C@H](c3ccc4[nH]c(=O)oc4c3)CC2)cc1 [Example 11a, 6-{trans-4-[(1S,2S)-2-Hydroxy-2-(4-methoxyphenyl)-1-methylethylamino]-cyclohexyl}-3H-benzoxazol-2-one] | < 6.00 | 4.26 | – | – | –
6 | O=c1[nH]c2ccc([C@H]3CC[C@H](NCCSc4ccc(F)cc4)CC3)cc2o1 [Example 8, 6-{trans-4-[2-(4-Fluorophenylsulfanyl)ethylamino]cyclohexyl}-3H-benzoxazol-2-one] | – | 7.70 | – | – | –
7 | COc1ccc([C@H](O)[C@H](C)N[C@H]2CC[C@@H](c3ccc4[nH]c(=O)oc4c3)CC2)cc1 [Example 11b, 6-{cis-4-[(1S,2S)-2-Hydroxy-2-(4-methoxyphenyl)-1-methylethylamino]-cyclohexyl}-3H-benzoxazol-2-one] | < 6.00 | 5.00 | – | – | –
8 | O=c1[nH]c2ccc([C@H]3CC[C@H](NCCOc4ccccc4)CC3)cc2o1 [Example 3, 6-[trans-4-(2-Phenoxyethylamino)cyclohexyl]-3H-benzoxazol-2-one] | – | 7.00 | 159 to 162 | 10.0 | active
9 | C[C@H](N[C@H]1CC[C@H](c2ccc3[nH]c(=O)oc3c2)CC1)[C@H](O)c1ccccc1 (stereo in doubt) [Example 12, 6-{trans-4-[(1S,2R)-2-Hydroxy-1-methyl-2-phenylethylamino]cyclohexyl}-3H-benzoxazol-2-one] | 4.65 | 4.15 | – | – | –
10 | O=c1[nH]c2ccc([C@H]3CC[C@H](NCCOc4ccc(F)cc4)CC3)cc2o1 [Example 2, 6-{trans-4-[2-(4-Fluorophenoxy)ethylamino]cyclohexyl}-3H-benzoxazol-2-one] | 7.40 | 7.00 | 172 to 176 | 10.0 | active
11 | O=c1[nH]c2ccc([C@H]3CC[C@H](NCCS(=O)(=O)c4ccccc4)CC3)cc2o1 [Example 16, 6-[trans-4-(2-Benzenesulfonylethylamino)cyclohexyl]-3H-benzoxazol-2-one] | 5.76 | 5.60 | – | – | –

Second part, led by results:

Row | pIC50 [1] | pIC50 (NR1A/NR2B NMDA receptor) | melting point [°C] | SMILES | 6-OHDA MED [2] [mg/kg] | 6-OHDA active/inactive at the given dose [2]
12 | 7.43 | 7.05 | 293 to 295 | O=c1[nH]c2ccc([C@H]3CC[C@H](NCCNc4ccccc4)CC3)cc2o1 [Example 7, 6-[trans-4-(2-Phenylaminoethylamino)cyclohexyl]-3H-benzoxazol-2-one] | – | –
13 | 8.30 | 7.70 | – | Cc1ccc(CCCN[C@H]2CC[C@H](c3ccc4[nH]c(=O)oc4c3)CC2)cc1 [Example 13b, 6-[trans-4-(3-p-Tolylpropylamino)cyclohexyl]-3H-benzoxazol-2-one] | – | –
14 | 7.42 | 7.10 | – | Cc1ccc(CCCN[C@H]2CC[C@@H](c3ccc4[nH]c(=O)oc4c3)CC2)cc1 [Example 13a, 6-[cis-4-(3-p-Tolylpropylamino)cyclohexyl]-3H-benzoxazol-2-one] | – | –
15 | 8.15 | 7.70 | – | O=c1[nH]c2ccc([C@H]3CC[C@H](NCCCc4ccc(F)cc4)CC3)cc2o1 [Example 4a, 6-{trans-4-[3-(4-Fluorophenyl)propylamino]cyclohexyl}-3H-benzoxazol-2-one] | > 10.0 | inactive
16 | 8.05 | 7.19 | 62 to 65 | CN(CCCc1ccc(F)cc1)[C@H]1CC[C@H](c2ccc3[nH]c(=O)oc3c2)CC1 [Example 18, 6-(trans-4-{[3-(4-Fluorophenyl)propyl]methylaamino}cyclohexyl)-3H-benzoxazol-2-one] | 10 | active
17 | 7.31 | 6.96 | 174 to 176 | C[C@@H](CCc1ccccc1)N[C@H]1CC[C@H](c2ccc3[nH]c(=O)oc3c2)CC1 [Example 10, 6-{trans-4-[(S)-1-Methyl-3-phenylpropylamino]cyclohexyl}-3H-benzoxazol-2-one] | – | –
